Consider three compounds from patent publication EP1216043B1, “RETARD FORM CONTAINING ALPHA-LIPOIC ACID (DERIVATIVES)” (priority 1999, dated 2001).

Like-named read-outs stand apart in the source and are kept apart here. Bounds are passed on as bounds.

For data set [1] the following is noted: cited from earlier work; for Cmax / F (Bioverfügbarkeit) / t1/2 / tmax: peroral, arithmetic mean; for absolute Bioverfügbarkeit: clinical studies, range over the dosage forms of Tabelle 1.
A short description of data set [2]: Diffusion study: diffusion of α-Liponsäure out of a dialysis vessel with/without Chitosan and Essigsäure.
Excerpt: Bei der vorliegenden Diffusionsstudie wurde der Einfluss von Chitosan auf das Diffusionsverhalten von α-Liponsäure untersucht.
Setting [3] is: 200 mg (±)-Liponsäure als 200 mg-Tablette.
Setting [4] is: 200 mg (±)-Liponsäure als 4x50 mg-Tabletten.
The mark [5] stands for this setting: 200 mg (±)-Liponsäure als Lösung.

Consider `O=C(O)CCCC[C@H]1CCSS1` [S, S-(-)-α-Liponsäure], for which, in data set [1] (setting [3]), the Cmax is 310 ng/mL, the “F (Bioverfügbarkeit)” value is given as 19.1%, the t1/2 was 19.8 min and the tmax was 54 min. Further, in data set [1] (setting [4]), the maximum concentration (Cmax) is 380 ng/mL, the “F (Bioverfügbarkeit)” value is 20.9%, the t1/2 is 49.2 min and the tmax was 42 min. For the same compound, in data set [1] (setting [5]), the highest concentration (Cmax) is 1320 ng/mL, the “F (Bioverfügbarkeit)” value is recorded as 28.3%, the t1/2 was 9 min and the tmax is 12.6 min. Further, the “absolute Bioverfügbarkeit” value in data set [1] is on record as 19.1 - 28.3%.
As for `O=C(O)CCCCC1CCSS1` (racemic) [α-Liponsäure, 1,2-Dithiolan-3-pentansäure], the Plasma-Halbwertszeit entry in data set [1] (after peroral administration) is recorded as “weniger als zwei Stunden”. Moreover, the “share of the Konzentrationsgleichgewicht reached” value in data set [2] (in presence of Chitosan, without Essigsäure, ca. 5 hours) is given as 63,8 % ± 4,3. For the same compound, in data set [2] (ohne Chitosan, printed as 'ca.'), the “time until Konzentrationsgleichgewicht der α-Liponsäure innerhalb und außerhalb des Dialysegefäßes was reached” value is listed as at most 5 Stunden.
As to `O=C(O)CCCC[C@@H]1CCSS1` [R, R-(+)-α-Liponsäure], in data set [1] (setting [3]), the Cmax was 490 ng/mL, the “F (Bioverfügbarkeit)” value is given as 24.1%, the t1/2 is 19.8 min and the tmax is 54 min. In addition, in data set [1] (setting [4]), the Cmax was 600 ng/mL, the “F (Bioverfügbarkeit)” value is 25.9%, the t1/2 is 42.6 min and the tmax is 42 min. In data set [1] (setting [5]), the peak concentration (Cmax) is 2240 ng/mL, the “F (Bioverfügbarkeit)” value is 38.2%, the t1/2 was 14.4 min and the tmax is 12.6 min. In data set [1], the “absolute Bioverfügbarkeit” value was 24.1 - 38.2%.

One may read the Cmax as the peak of the concentration-time curve.
